This passage reports IC50 and Relative resistance results from ChEMBL document CHEMBL1149968, “Synthesis and in vitro cytotoxicity of cis-dichloro[(2S,3R,4S)-2-aminomethyl-3,4-(O-isopropylidene)dihydroxy- or -3,4-dihydroxypyrrolidine]platinum(II)” (Bioorg Med Chem Lett, 1996).

Assay [1] relates to L1210. Kind of assay: In vitro cytotoxicity against Cisplatin resistant L1210/CPR leukemia cell lines. Type of assay: functional, cell-based, Mus musculus.
The test system of the next assay is SK-OV-3. The assay is described as follows: In vitro cytotoxicity against ovarian cancer SK-OV-3 cell lines. Type of assay: functional, cell-based, Homo sapiens.
Another assay has as its system XF498. The assay is described as follows: In vitro cytotoxicity against CNS cancer XF 498 cell lines. Type of assay: functional, cell-based, Homo sapiens.
The test system of assay [2] is L1210. Kind of assay: In vitro cytotoxicity against Cisplatin sensitive L1210/parent leukemia cell lines. Type of assay: functional, cell-based, Mus musculus.
Another assay deals with A549. Kind of assay: In vitro cytotoxicity against lung cancer A 549 cell lines. Type of assay: functional, cell-based, Homo sapiens.
Assay [3] in a line: Relative resistance calculated as the ratio of IC50 of resistant sublime to that of IC50 of parent cell line. Type of assay: functional.

For the substance CARBOPLATIN [listing 1 of 2 here], the IC50 was found to be 45.3 µM in the assay with L1210 [1]; 13.9 µM in the assay on SK-OV-3; 13.6 µM with XF498; 2 µM in the assay with L1210 [2]; 37.7 µM in the assay with A549.
Take CARBOPLATIN [listing 2 of 2 here]: the Relative resistance in assay [3] is 22.7.
Take CISPLATIN [listing 1 of 2 here]: the results for the IC50 with L1210 [1], with XF498 and in the assay on A549 were 3.4 µM, 2.9 µM and 3.2 µM, respectively.
On to CISPLATIN [listing 2 of 2 here], for which the Relative resistance in assay [3] was 34.
Turning to “cis-Dichloro[(2S,3R,4S)-2-aminomethyl-3,4-(O-isopropylidene)dihydrxypyrrolidine]platinum (II) [listing 1 of 2 here]”, the IC50 stood at 1.6 µM in the assay on L1210 [1]; 7.8 µM in the assay with SK-OV-3; 6.2 µM in the assay with XF498; 0.3 µM in the assay with L1210 [2]; 10.9 µM in the assay on A549.
With “cis-Dichloro[(2S,3R,4S)-2-aminomethyl-3,4-(O-isopropylidene)dihydrxypyrrolidine]platinum (II) [listing 2 of 2 here]”, the Relative resistance in assay [3] is 5.3.
Turning to “cis-Dichloro[(2S,3R,4S)-2-aminomethyl-3,4-dihydroxypyrrolidine]platinum (II) [listing 1 of 2 here]”, the IC50 in the assay on L1210 [1] was 10.9 µM; in the assay on SK-OV-3, 15.4 µM; in the assay with XF498, 14.8 µM; in the assay with L1210 [2] it was 1.4 µM; in the assay on A549, 32.5 µM.
On to “cis-Dichloro[(2S,3R,4S)-2-aminomethyl-3,4-dihydroxypyrrolidine]platinum (II) [listing 2 of 2 here]”, for which the Relative resistance in assay [3] was 7.8.
